{
  "source": "patent US20150250892A1",
  "about": "“BIODEGRADABLE POLYMERIC BUFFERS” (Northeastern University, priority 2012, published 2015)",
  "key": {"SKOV3 cells": {"tested_on": "SKOV3 cells", "experiment": "Cytotoxicity evaluation of drug loaded HA nanoparticles on ovarian cancer cells", "format": "cell-based", "conditions": "free drug", "excerpt": "9) Cytotoxicity Evaluation of Drug Loaded HA Nanoparticles on Ovarian Cancer Cells: […]"}, "[1]": {"tested_on": "MDA-MB-231 breast cancer cell lines", "experiment": "In vitro cell uptake of free doxorubicin (DOX) and DOX loaded HA polymers", "format": "cell-based", "conditions": "20 μM, 1 h incubation, fluorescence microscopy", "method": "In order to determine the pH altering effects of the hyaluronic acid-lipid modified polymers and cellular trafficking of drugs, a model fluorescent drug, doxorubicin, was encapsulated into the unmodified and modified HA polymers and tested on MDA-MB-231 breast cancer cell lines.\nAfter 1 h of incubation, the cells were washed thrice with PBS and the uptake of DOX in the cells was observed using a fluorescence microscope."}, "[2]": {"conditions": "of the free drug; cited from earlier work"}, "[3]": {"conditions": "Homo sapiens, SK-OV-3, 48 hour timepoint"}},
  "data": [
    {"compound": "CC[C@@]1(O)C(=O)OCc2c1cc1n(c2=O)Cc2cc3ccccc3nc2-1", "note": "[Camptothecin]", "values": [
      {"measurement": "IC50", "setting": "SKOV3 cells; [3]", "result": 820, "unit": "nM"}
    ]},
    {"compound": "COc1cccc2c1C(=O)c1c(O)c3c(c(O)c1C2=O)C[C@@](O)(C(=O)CO)C[C@@H]3O[C@H]1C[C@H](N)[C@H](O)[C@H](C)O1", "note": "[Doxorubicin]", "values": [
      {"measurement": "uptake of DOX in the nucleus", "setting": "[1]", "result": "much lower in the nucleus"},
      {"measurement": "IC50", "setting": "SKOV3 cells; 48 hour timepoint", "result": 5780, "unit": "nM"},
      {"measurement": "logP", "setting": "[2]", "result": "−0.5"}
    ]},
    {"compound": "COc1cc([C@@H]2c3cc4c(cc3[C@@H](O[C@@H]3O[C@@H]5CO[C@@H](C)O[C@H]5[C@H](O)[C@H]3O)[C@H]3COC(=O)[C@H]23)OCO4)cc(OC)c1O", "note": "[Etoposide]", "values": [
      {"measurement": "IC50", "setting": "SKOV3 cells; [3]", "result": 4580, "unit": "nM"}
    ]},
    {"compound": "CC(=O)[C@]1(O)Cc2c(O)c3c(c(O)c2[C@@H](O[C@H]2C[C@H](N)[C@H](O)[C@H](C)O2)C1)C(=O)c1ccccc1C3=O", "note": "[Idarubicin]", "values": [
      {"measurement": "IC50", "setting": "SKOV3 cells; [3]", "result": 3820, "unit": "nM"},
      {"measurement": "logP", "setting": "[2]", "result": 0.2}
    ]},
    {"compound": "CC(=O)O[C@H]1C(=O)[C@@]2(C)[C@H]([C@H](OC(=O)c3ccccc3)[C@]3(O)C[C@H](OC(=O)[C@H](O)[C@@H](NC(=O)c4ccccc4)c4ccccc4)C(C)=C1C3(C)C)[C@]1(OC(C)=O)CO[C@@H]1C[C@@H]2O", "note": "[Paclitaxel]", "values": [
      {"measurement": "IC50", "setting": "SKOV3 cells; [3]", "result": 10.1, "unit": "nM"}
    ]},
    {"compound": "CC[C@@]1(O)C(=O)OCc2c1cc1n(c2=O)Cc2cc3c(CN(C)C)c(O)ccc3nc2-1", "note": "[Topotecan]", "values": [
      {"measurement": "IC50", "setting": "SKOV3 cells; [3]", "result": 220, "unit": "nM"},
      {"measurement": "logP", "setting": "[2]", "result": 0.8}
    ]}
  ]
}
